This note sets out measurements from publication PMC6321525 (Molecules, 2018).

Test in all cases: biochemical
Format in all cases: biochemical

The target of one assay is T1, BACE1 (Homo sapiens, UniProt P56817).
T1 construct: purchased Millipore-Sigma CS0010-1KT
The settings on record: for IC50: fluorescence after 2 h, read-out: IC50, inhibition of BACE1. The method, then: Inhibition of BACE1 was tested using the commercial kit (cat CS0010-1KT, Millipore-Sigma, St. Louis, MO, USA) following the directions accompanying the kit. […] Dilutions were originally performed in DMSO, and 2 μL added to the reaction in order to account for any moderation of activity from the vehicle. Fluorescent measurements were taken after 2 h. The resulting rates were normalized to the reaction without inhibitor. In order to get an appropriate sigmoidal fit, two additional points (400 and 1000 μM) were added to the data when needed.

Assay [1] concerns the target EeAChE (acetylcholinesterase from Electrophorus electricus) (Electrophorus electricus, UniProt O42275). The settings on record: for fold enhanced potency against EeAChE compared to donepezil: ratio of IC50 values; for IC50: with standard error, 25 °C, 10 min preincubation, read-out: IC50, inhibition of EeAChE. The method, then: (§1) Experiments were performed as previously described. […] All assays were performed in duplicate or triplicate.

Assay [2] addresses T2, EfBChE (butyrylcholinesterase from equine serum) (Equus caballus, UniProt P81908).
T2 construct: EfBChE from equine serum (Equus ferus); from tissue; host or cells: equine serum
To be noted: for SI, selectivity index based on IC50 values (EeAChE vs EfBChE): ratio of EfBChE to EeAChE IC50 values; for fold better than donepezil against EfBChE: ratio of IC50 values; for IC50: with standard error, 25 °C, 10 min preincubation, read-out: IC50, inhibition of EfBChE. Here is the method:
as §1

The target of assay [3] is HsAChE (acetylcholinesterase from Homo sapiens) (Homo sapiens, UniProt P22303). Here is the method:
as §1

Structures are written as SMILES. Several values for one entry are separate records, joined by “and”; a condition that tells them apart may be missing. Equal values may be shown once.

Sequence of EeAChE (acetylcholinesterase from Electrophorus electricus) (O42275 24-633): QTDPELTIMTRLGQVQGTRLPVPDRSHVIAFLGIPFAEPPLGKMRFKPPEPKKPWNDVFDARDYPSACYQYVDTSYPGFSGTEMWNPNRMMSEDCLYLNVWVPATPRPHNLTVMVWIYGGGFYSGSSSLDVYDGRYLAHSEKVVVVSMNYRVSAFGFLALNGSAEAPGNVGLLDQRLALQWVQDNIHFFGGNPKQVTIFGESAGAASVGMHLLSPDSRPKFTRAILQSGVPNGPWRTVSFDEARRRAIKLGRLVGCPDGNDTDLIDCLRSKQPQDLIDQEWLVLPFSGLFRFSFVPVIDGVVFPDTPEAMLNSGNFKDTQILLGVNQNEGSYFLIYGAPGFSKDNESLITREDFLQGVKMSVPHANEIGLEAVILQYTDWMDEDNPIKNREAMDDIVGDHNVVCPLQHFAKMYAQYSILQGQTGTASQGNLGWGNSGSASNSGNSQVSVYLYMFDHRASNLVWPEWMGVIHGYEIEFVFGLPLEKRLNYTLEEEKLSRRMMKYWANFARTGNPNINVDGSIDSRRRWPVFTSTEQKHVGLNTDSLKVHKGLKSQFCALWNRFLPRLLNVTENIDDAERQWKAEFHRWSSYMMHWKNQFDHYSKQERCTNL
Sequence of HsAChE (acetylcholinesterase from Homo sapiens) (P22303 32-614): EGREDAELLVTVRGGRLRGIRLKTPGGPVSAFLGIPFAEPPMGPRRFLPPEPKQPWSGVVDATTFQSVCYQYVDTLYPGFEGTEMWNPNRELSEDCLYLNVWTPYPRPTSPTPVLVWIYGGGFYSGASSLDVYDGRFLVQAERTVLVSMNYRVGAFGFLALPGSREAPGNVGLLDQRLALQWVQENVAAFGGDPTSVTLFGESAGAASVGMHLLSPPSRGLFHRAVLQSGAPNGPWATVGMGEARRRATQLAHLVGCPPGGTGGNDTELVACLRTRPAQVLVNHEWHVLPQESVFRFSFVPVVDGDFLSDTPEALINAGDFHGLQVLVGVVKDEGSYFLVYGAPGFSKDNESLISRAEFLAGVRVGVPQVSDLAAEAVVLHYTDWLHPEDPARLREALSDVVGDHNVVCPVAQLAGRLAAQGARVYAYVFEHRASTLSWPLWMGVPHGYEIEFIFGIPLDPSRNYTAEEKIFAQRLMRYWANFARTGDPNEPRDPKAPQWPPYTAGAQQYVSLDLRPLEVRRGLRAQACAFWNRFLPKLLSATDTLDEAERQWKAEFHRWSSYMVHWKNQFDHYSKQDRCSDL
T2 sequence (P81908 whole entry): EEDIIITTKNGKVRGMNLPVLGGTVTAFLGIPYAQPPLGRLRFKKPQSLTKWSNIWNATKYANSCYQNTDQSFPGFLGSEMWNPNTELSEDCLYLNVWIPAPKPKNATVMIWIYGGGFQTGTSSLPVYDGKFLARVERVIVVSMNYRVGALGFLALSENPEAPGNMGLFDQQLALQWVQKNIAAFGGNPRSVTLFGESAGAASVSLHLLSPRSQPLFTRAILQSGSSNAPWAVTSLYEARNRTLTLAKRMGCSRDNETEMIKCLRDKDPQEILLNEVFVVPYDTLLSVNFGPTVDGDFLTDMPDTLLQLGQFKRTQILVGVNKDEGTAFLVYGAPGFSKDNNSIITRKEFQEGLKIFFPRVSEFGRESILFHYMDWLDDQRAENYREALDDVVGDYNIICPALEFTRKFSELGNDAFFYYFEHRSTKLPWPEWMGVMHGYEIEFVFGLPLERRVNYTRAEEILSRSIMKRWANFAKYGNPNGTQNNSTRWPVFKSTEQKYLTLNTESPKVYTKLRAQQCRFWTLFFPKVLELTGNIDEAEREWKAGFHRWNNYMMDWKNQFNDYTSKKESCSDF
T1 sequence (P56817 46-457): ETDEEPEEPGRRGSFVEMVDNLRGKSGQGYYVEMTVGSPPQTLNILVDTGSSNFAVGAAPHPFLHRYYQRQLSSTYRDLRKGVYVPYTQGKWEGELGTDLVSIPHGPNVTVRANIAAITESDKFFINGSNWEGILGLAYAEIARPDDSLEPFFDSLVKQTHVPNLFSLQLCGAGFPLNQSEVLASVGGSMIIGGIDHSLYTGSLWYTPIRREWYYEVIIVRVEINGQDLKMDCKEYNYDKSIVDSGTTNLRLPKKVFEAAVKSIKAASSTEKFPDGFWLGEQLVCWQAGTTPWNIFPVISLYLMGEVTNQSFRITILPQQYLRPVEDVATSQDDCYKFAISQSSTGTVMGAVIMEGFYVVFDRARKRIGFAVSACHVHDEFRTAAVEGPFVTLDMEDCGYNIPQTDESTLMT

Turning to `COc1cc2c(cc1OCc1c(F)cc(F)cc1F)C(=O)C(CC1CCN(Cc3ccccc3)CC1)C2` (centres unmarked) [Compound 8u], the IC50 on BACE1 stood at 91000 ± 14000 nM. Moreover, in assay [1], the “fold enhanced potency against EeAChE compared to donepezil” value (shortened to “fold enhanced potency against EeAChE”) is reported as “five” and the IC50 was 27 ± 4 nM. For the same molecule, in assay [2], the “SI, selectivity index based on IC50 values (EeAChE vs EfBChE)” value (from here on “SI, selectivity index based”) amounted to 7.4; the “fold better than donepezil against EfBChE” value (shortened to “fold better than donepezil”) was determined as 10 fold; the half-maximal inhibitory concentration (IC50) is 199 nM and 200 nM.

Turning to `COc1cc2c(cc1OCc1ccc(Br)cc1)C(=O)C(CC1CCN(Cc3ccccc3)CC1)C2` (centres unmarked) [Compound 8l], the “BACE1 IC50 within fold of the IC50 of donepezil” value (from here on “BACE1 IC50 within fold”) at BACE1 is listed as ≤ 5 fold. In addition, the values for the IC50 (at BACE1; in assay [1]; in assay [2]) were 3400 ± 100 nM, 71 ± 15 nM and 720 ± 100 nM, respectively. Besides, the “SI, selectivity index based” value in assay [2] is on record as 10.

Consider `COc1cc2c(cc1OCc1cccc(F)c1)C(=O)C(CC1CCN(Cc3ccccc3)CC1)C2` (centres unmarked) [Compound 8n], for which the 50% inhibitory concentration (IC50) at BACE1 was 12000 ± 3000 nM; in assay [1], 156 nM and 160 nM; in assay [2], 959 nM and 960 nM. In assay [2], the “SI, selectivity index based” value is 6.0.

Take `COc1cc2c(cc1OCCCl)C(=O)C(CC1CCN(Cc3ccccc3)CC1)C2` (centres unmarked) [Compound 8d, 2-[(1-Benzylpiperidin-4-yl)methyl]-6-[(chloroethyl)oxy]-5-methoxy-2,3-dihydroinden-1-one]: the IC50 at BACE1 was ~100000 nM. Also, in assay [1], the “fold enhanced potency against EeAChE” value is recorded as 2 fold and the IC50 is 59 ± 4 nM. In assay [2], the “SI, selectivity index based” value was 22; the “fold better than donepezil” value was 2 fold; the IC50 was 1300 ± 100 nM.

For `COc1cc2c(cc1OCc1c(F)c(F)c(F)c(F)c1F)C(=O)C(CC1CCN(Cc3ccccc3)CC1)C2` (centres unmarked) [Compound 8v], the IC50 at BACE1 was 29000 ± 6000 nM; in assay [1], 172 nM and 170 nM; in assay [2], 114 nM and 110 nM. The “fold more selective for EfBChE (over EeAChE)” value in assay [2] stood at 1.5 fold. Also, the “fold better than donepezil” value in assay [2] is 18 fold.

With `COc1cc2c(cc1OCc1ccccc1C(F)(F)F)C(=O)C(CC1CCN(Cc3ccccc3)CC1)C2` (centres unmarked) [Compound 8p], the IC50 at BACE1 stood at 34000 ± 9000 nM. For the same molecule, in assay [1], the “fold enhanced potency against EeAChE” value is on record as 4 fold and the IC50 stood at 32 ± 10 nM. Moreover, in assay [2], the “SI, selectivity index based” value worked out at 7.8; the “fold better than donepezil” value turned out to be 8 fold; the IC50 is 254 nM and 250 nM.

As to `COc1cc2c(cc1OCc1ccc(Br)cc1F)C(=O)C(CC1CCN(Cc3ccccc3)CC1)C2` (centres unmarked) [Compound 8t], the 50% inhibitory concentration (IC50) on BACE1 is 169000 ± 2000 nM; in assay [1] it was 54 ± 7 nM; in assay [3] (37 °C, read-out: IC50, inhibition of HsAChE) it was 1.8 ± 0.6 nM; in assay [2] it was 372 nM and 370 nM. Besides, the “fold enhanced potency against EeAChE” value in assay [1] is listed as 2.2 fold. In assay [3], the “SI, selectivity index of EeAChE versus HsAChE, based on IC50 values” stood at 30. Further, the “fold better inhibition of HsAChE than donepezil” value in assay [3] (ratio of IC50 values) worked out at 18 fold. Further, the “SI, selectivity index based” value in assay [2] was 6.9.

For `COc1cc2c(cc1OCCCN)C(=O)C(CC1CCN(Cc3ccccc3)CC1)C2` (centres unmarked) [Compound 8a, 6-[(3-Aminopropyl)oxy]-2-[(1-benzylpiperidin-4-yl)methyl]-5-methoxy-2,3-dihydroinden-1-one], on BACE1, the IC50 amounted to 95000 ± 12000 nM. In addition, the IC50 in assay [1] worked out at 54 ± 3 nM. In assay [2], the “SI, selectivity index based” value is 11; the “fold better than donepezil” value came to 4 fold; the 50% inhibitory concentration (IC50) was 573 nM and 570 nM.

Regarding `COc1cc2c(cc1OCc1ccc(F)cc1)C(=O)C(CC1CCN(Cc3ccccc3)CC1)C2` (centres unmarked) [Compound 8m], the figures for the concentration for half-maximal inhibition (IC50) (at BACE1; in assay [1]; in assay [2]) were ~100000 nM, 81 ± 5 nM and 570 ± 100 nM, respectively. In addition, the “SI, selectivity index based” value in assay [2] came out at 7.0.

As to `COc1cc2c(cc1OCCN)C(=O)C(CC1CCN(Cc3ccccc3)CC1)C2` (centres unmarked) [Compound 8b, 6-[(3-Aminoethyl)oxy]-2-[(1-benzylpiperidin-4-yl)methyl]-5-methoxy-2,3-dihydroinden-1-one], the IC50 on BACE1 is ~100000 nM. In assay [1], the “fold enhanced potency against EeAChE” value amounted to 6 fold and the IC50 turned out to be 21 ± 3 nM. Further, in assay [2], the “SI, selectivity index based” value was 23; the “fold better than donepezil” value is recorded as 4 fold; the 50% inhibitory concentration (IC50) is 478 nM and 480 nM.

As to `COc1cc2c(cc1OCc1c(F)cccc1F)C(=O)C(CC1CCN(Cc3ccccc3)CC1)C2` (centres unmarked) [Compound 8s], the IC50 at BACE1 turned out to be 30000 ± 8000 nM. In assay [1], the “fold enhanced potency against EeAChE” value was “eight” and the half-inhibitory concentration (IC50) is 16 ± 1 nM. For the same molecule, in assay [2], the “SI, selectivity index based” value is listed as 28; the “fold better than donepezil” value amounted to 5 fold; the IC50 is 438 nM and 440 nM.

Consider `COc1cc2c(cc1OCCBr)C(=O)C(CC1CCN(Cc3ccccc3)CC1)C2` (centres unmarked) [Compound 8e, 2-[(1-Benzylpiperidin-4-yl)methyl]-6-[(bromoethyl)oxy]-5-methoxy-2,3-dihydroinden-1-one], for which, at BACE1, the “BACE1 IC50 within fold” value was ≤ 5 fold and the IC50 worked out at 7900 ± 900 nM. Also, in assay [1], the “fold enhanced potency against EeAChE” value is given as 3 fold and the IC50 was 44 ± 3 nM. Besides, in assay [2], the “SI, selectivity index based” value was found to be 30; the “fold better than donepezil” value is on record as 2 fold; the IC50 was 1290 nM and 1300 nM.

On to `COc1cc2c(cc1OCCCCCCCCCCCCBr)C(=O)C(CC1CCN(Cc3ccccc3)CC1)C2` (centres unmarked) [Compound 8g, 2-[(1-Benzylpiperidin-4-yl)methyl]-6-[(bromododecyl)oxy]-5-methoxy-2,3-dihydroinden-1-one], for which, in assay [1], the half-maximal inhibitory concentration (IC50) is 789 nM and 790 nM. Besides, in assay [2], the “SI, selectivity index based” value stood at 6.6; the 50% inhibitory concentration (IC50) was 5150 nM and 5200 nM.

Take `COc1cc2c(cc1OCCCCBr)C(=O)C(CC1CCN(Cc3ccccc3)CC1)C2` (centres unmarked) [Compound 8f, 2-[(1-Benzylpiperidin-4-yl)methyl]-6-[(bromobutyl)oxy]-5-methoxy-2,3-dihydroinden-1-one]: at BACE1, the “BACE1 IC50 within fold” value was ≤ 5 fold and the IC50 was determined as 7900 ± 2400 nM. Further, the 50% inhibitory concentration (IC50) in assay [1] turned out to be 61 ± 7 nM. Moreover, in assay [2], the “SI, selectivity index based” value is 21; the IC50 is 1280 nM and 1300 nM.

For the molecule `CCCOc1cc2c(cc1OC)CC(CC1CCN(Cc3ccccc3)CC1)C2=O` (centres unmarked) [Compound 8c, 2-[(1-Benzylpiperidin-4-yl)methyl]-5-methoxy-6-propoxy-2,3-dihydroinden-1-one], on BACE1, the “BACE1 IC50 within fold” value was ≤ 5 fold and the half-inhibitory concentration (IC50) was 6100 ± 100 nM. Besides, the IC50 in assay [1] turned out to be 140 ± 20 nM. In addition, in assay [2], the “SI, selectivity index based” value is 15; the IC50 is 2050 nM and 2100 nM.

`COc1cc2c(cc1OCc1cc(F)ccc1F)C(=O)C(CC1CCN(Cc3ccccc3)CC1)C2` (centres unmarked) [Compound 8r]: the concentration for half-maximal inhibition (IC50) at BACE1 was ~100000 nM. The IC50 in assay [1] was determined as 90 ± 9 nM. In assay [2], the “SI, selectivity index based” value stood at 6.7; the “fold better than donepezil” value came out at 3 fold; the IC50 was 601 nM and 600 nM.

Take `COc1cc2c(cc1OCc1ccccc1)C(=O)C(CC1CCN(Cc3ccccc3)CC1)C2` (centres unmarked) [Compound 8h]: on BACE1, the IC50 turned out to be 58000 ± 1000 nM. In assay [1], the 50% inhibitory concentration (IC50) was 131 nM and 130 nM. Also, in assay [2], the “SI, selectivity index based” value amounted to 5.4; the “fold better than donepezil” value was 3 fold; the IC50 was 704 nM and 700 nM.

In the case of `COc1cc2c(cc1OCc1ccc(C)cc1)C(=O)C(CC1CCN(Cc3ccccc3)CC1)C2` (centres unmarked) [Compound 8i], the half-inhibitory concentration (IC50) at BACE1 was 58000 ± 2000 nM; in assay [1] it was 228 nM and 230 nM; in assay [2], 997 nM and 1000 nM. Also, the “SI, selectivity index based” value in assay [2] was 4.3.

With `COc1cc2c(cc1OCc1ccc(F)cc1F)C(=O)C(CC1CCN(Cc3ccccc3)CC1)C2` (centres unmarked) [Compound 8q], the IC50 at BACE1 turned out to be 37000 ± 5000 nM. The concentration for half-maximal inhibition (IC50) in assay [1] is 113 nM and 110 nM. Also, in assay [2], the “SI, selectivity index based” value is recorded as 4.4; the “fold better than donepezil” value is reported as 4 fold; the IC50 was 483 nM and 480 nM.

Turning to `COc1ccc(COc2cc3c(cc2OC)CC(CC2CCN(Cc4ccccc4)CC2)C3=O)cc1` (centres unmarked) [Compound 8j], the IC50 in assay [1] is 125 nM and 130 nM. Moreover, in assay [2], the “SI, selectivity index based” value is 5.2; the IC50 is 668 nM and 670 nM.

For `COc1cc2c(cc1OCc1ccccc1F)C(=O)C(CC1CCN(Cc3ccccc3)CC1)C2` (centres unmarked) [Compound 8o], the IC50 on BACE1 is 21000 ± 4000 nM; in assay [1], 124 nM and 120 nM; in assay [2], 764 nM and 760 nM. Moreover, the “SI, selectivity index based” value in assay [2] turned out to be 6.3.

In the case of `COc1cc2c(cc1OCc1ccc([N+](=O)[O-])cc1)C(=O)C(CC1CCN(Cc3ccccc3)CC1)C2` (centres unmarked) [Compound 8k], the IC50 in assay [1] is 126 nM and 130 nM; in assay [2], 462 nM and 460 nM. In assay [2], the “SI, selectivity index based” value is 3.5.

Take `COc1cc2c(cc1O)C(=O)C(CC1CCN(Cc3ccccc3)CC1)C2` (centres unmarked) [Compound 7, 2-[(1-Benzylpiperidin-4-yl)methyl]-6-hydroxy-5-methoxy-2,3-dihydroinden-1-one]: the half-inhibitory concentration (IC50) in assay [1] is 409 nM and 410 nM. In addition, in assay [2], the “SI, selectivity index based” value came to 11 and the IC50 is 4300 ± 400 nM.

For orientation: IC50 means the point on the concentration scale where inhibition reaches its midpoint.
